From patent publication US5496533A, “Rhenium complexes” (Australian Nuclear Science & Technology Organisation, priority 1992, dated 1996)
Like-named read-outs stand apart in the source and are kept apart here.

Assay: Hygroscopic nature of the HCl salts
Type: physicochemical
Procedure: To a solution of N-methyl-bicyclic compound (2) (10 mmole) in dry THF (100-150ml) was added a large excess of LiAlH4 (30 mmole), and the mixture was refluxed for about 24 hr. The reaction mixture was quenched with […]. NH4 Cl, and filtered. The contents of the funnel were washed with 100ml of CHCl3 twice and the combined filtrate of THF and CHCl3 was evaporated to dryness under reduced pressure. The residue was dissolved in ether (100 ml), and the hydrochloride salt was made by addition of ethanol--HCl and removal of organic solvent under reduced pressure.
To a solution of N-acyl-bicyclic compound (3) (10 mmole) in dry tetrahydrofuran (THF) (100-150ml) was added a large excess of LiAlH4 (50 mmole), and the mixture was refluxed for about 24 hr. The reaction mixture was quenched with satd. NH4 Cl, and filtered. The contents of the funnel were washed with 100 ml of CHCl3 twice and the combined filtrate of THF and CHCl3 was evaporated to dryness under reduced pressure. Water was added (100 ml), and the pH was adjusted to 3.0 with concentrated HCl. The mixture was extracted with diethyl ether (80 ml/extraction) to remove ether soluble impurities. These ether solutions were discarded. The pH was then adjusted to 8.0 and extracted with fresh ether. These ether solutions were dried (Na2 SO4), filtered and evaporated under reduced pressure. […]

hygroscopic nature of HCl salts: very hygroscopic
hygroscopic nature of HCl salts (listed as 4(N--Me)): strong hygroscopic nature
SMILES: CN(CCNCC(C)(C)S)CC(C)(C)S [N-methyl compound (4), 2,2,9,9-pentamethyl-4-N-methyl-4,7-diaza-1,10-decanedithiol]
